Data on six compounds can be found in patent US20020042079A1, “METHODS AND AGENTS FOR MEASURING AND CONTROLLING MULTIDRUG RESISTANCE” (priority 1994, published 2002).

“Also recorded” adds a separate entry of the source.

Data set [1] relates to isolated microsomes of MCF-7/ADR cells. Briefly: In vitro acidification of total microsomal preparation (acridine orange quenching). To be noted: for rate of dissipation of the pre-existing pH gradient: added 10 minutes after ATP, Bafilomycin A1 100 nM, compared with tamoxifen. As to the method:
Acidification of Cellular Microsomes: The acidification of cellular microsomes was assayed spectrophotometrically. Two different approaches were used for assaying acidification: Acidification of the total microsomal preparation using quenching of acridine orange and acidification of the recycling endosomes by monitoring the fluorescence from a microsomal preparation from cells that had previously endocytosed FITC-transferrin.
The homogenate was centrifuged twice for 10 minutes at 3000 g to remove unbroken cells and nuclei. The supernatant was layered over 20 ml of 0.5 M sucrose (20 mM HERES (pH 7.4), 1 mM DTT, 1 mM EDTA, 1×protease inhibitor mix) and 1 ml of 2 M sucrose and centrifuged for one hour at 100,000 g (Beckman Ti60 Rotor). Microsomes are collected at the 0.5 M and 2 M interface.
Acidic vesicles accumulate acridine orange to high concentrations resulting in the self quenching of the dye. This accumulation causes depletion of the acridine orange from the extra-vesicular space, and a decrease of the overall fluorescence of the sample. […] The sample was allowed to equilibrate by stirring for 30 minutes at 25° C. After 5 minutes of recording to establish baseline, 1 mM Tris-ATP was added to begin acidification (100 mM stock, titrated to pH 7.4 with 1 M Tris-base before use).

In data set [2] the test system is MCF-7/ADR cells. Briefly: Cell viability assay of Adriamycin sensitivity (Hoechst 33258 DNA content). The following applies: for effect on sensitivity of drug-resistant cells to Adriamycin: MCF-7/ADR (MCF-7adr) cells, agent co-incubated with adriamycin for 6 hours.
Procedure: After 6 hours, the media was removed, the cells rinsed, and then fed with fresh media not containing drugs. […] Media was aspirated and the wells rinsed with Hanks Balanced Salt Solution (HBSS, phenol red free). The cells were sonicated in hypotonic media (0.1×HBSS) for 30 seconds. […] Calf thymus DNA was used for calibration.
Cell viability assays: The media was removed 60 hr. after plating the cells and replaced with fresh media supplemented with various concentrations of adriamycin (Calbiochem, CA) and monensin (solubilized in DMF 0.1%) (Sigma, St. Louis). After 6 hr the media was removed, the cells rinsed, and then fed with fresh media not containing drugs. […] Media was aspirated and the wells rinsed with Hanks Balanced Salt Solution (HBSS, phenol red free). The cells were sonicated in hypotonic media (0.1×HBSS) for 30 seconds. […] Calf thymus DNA was used for calibration.
Cell Viability Assays: Cell viability was assayed by plating cells at ˜1000 cells/well in 24 well plates (Falcon) in DME. […] The cells were fed daily for three days and then cell viability was quantified with two independent techniques: an assay of total DNA and an assay of volume of viable cells. […] Calf thymus DNA was used for calibration.
After three days cell viability was assayed.
The test system of data set [3] is MCF-7/ADR cells. The experiment in a line: Acridine orange labeling of acidic compartments (confocal microscopy). Format: cell-based, human. The following applies: for red-orange acridine orange fluorescence of cytoplasmic organelles after addition of agent: MCF-7/ADR, 30 minutes, Monensin 5 μM, Bafilomycin A1 500 nM, concanomycin 100 nM, Tamoxifen 5 or 10 μM, verapamil 10 μM, cyclosporin A 10 μM. As to the method: Confocal fluorescence imaging of intracellular pH and acidic compartments: Acridine orange (2 μg/ml media; 4 mg/ml stock in water) was added directly to the chambers and the cells were incubated with the dye at 37° C. for 30 minutes. Cells in the presence of acridine orange were then examined at room temperature with an Insight Bilateral Laser Scanning Confocal Microscope (Meridian Instruments, Okemos, Mich.). […] Optical sections of the fluorescent sample were recorded at 0.5 micron intervals. […] The acetoxymethylester derivative of SNAFL-calcein (15 μg/ml) (Molecular Probes, Eugene, Oreg.) (a radiometric fluorescent probe for pH) was added to both MCF-7 and MCF-7adr cells. The ester linked fluorescent probe enters the cell passively where the esters are hydrolyzed by esterases located in the cytoplasm and intracellular vesicles. The SNAFL-calcein is then ionically trapped within the cytoplasm and vesicular compartments. […] These images were then compared to standard curves that were obtained in the following manner. […] Cells treated with monensin were exposed to the drug (10 μg/ml of media) for 30 minutes at 37° C. prior to labeling with SNAFL-calcein as described above. All cells were examined at room temperature.
The green and red emissions were collected using two photomultiplier tubes. […] Green emission was next passed through a 530 nm/30 nm bandpass filter and collected by the on-axis photomultiplier tube. Red emission was passed through a 610 nm longpass filter and collected by the 90° side photomultiplier tube.
Optical sections of the fluorescent samples were recorded at 0.5 micron intervals with a 60×oil immersion objective.

In data set [4] the test system is MCF-7/ADR cells. Briefly: Subcellular distribution of Adriamycin fluorescence (confocal microscopy). To be noted: for Adriamycin distribution after addition of agent: MCF-7/ADR, Monensin 5 μM, Bafilomycin A1 500 nM, concanomycin 100 nM, Tamoxifen 10 μM (50 μM in Example 3), verapamil 10 μM, cyclosporin 5 μM. Format: cell-based, human. On the procedure: Adriamycin can be excited between 350 nm-550 nm and emits between 400 nm-700 nm.
Labeling of Cells with Adriamycin: Cells were loaded with Adriamycin (10 μM) added to the perfusion medium. […] For epi-fluorescence, the cells were excited with 450-490 nm filter and emission was monitored with a 510 nm longpass filter.

For data set [5] the following is noted: lumenal pH of 6 and an external pH of 8; cited from earlier work.
Data set [6] deals with MCF-7/ADR cells. Briefly: Organelle-specific pH measurements with targeted SNARF and FITC probes in living cells. To be noted: MCF-7/ADR cells; SNARF 70 kD dextran; Tamoxifen at 10 μM. Format: cell-based, human. As to the method:
Organelle-specific pH measurements: The pH was measured in selective cellular compartments by targeting ratiometric pH probes to specific organelles. […] Using a Nikon epifluorescence microscope with a intensified CCD camera, the pH probe FITC was excited alternately at 450 nm and 490 nm and emission recorded with a 520/10 bandpass filter. […] In short, to calibrate the pH for the endosomal system, the chamber was perfused with 150 mM sodium buffers at pH of 5, 6 or 7 containing of monensin (20 μM) and nigericin (10 μM) for 5 minutes before recording the fluorescence. For the pH calibrations of cytosol and nucleoplasm, the cells were incubated in 140 mM potassium buffers at pH 6.0, 6.5, 7.0 and 7.5 containing nigericin (20 μM).
After endocytosis, the transferrin is transported through the endosomes and then recycled back to the surface without passage through the lysosomes.
pH in the lysosomes: The pH in the lysosomes was assayed both with light and electron microscopy. […] The pH was calibrated as described above. […] The cells were incubated one hour at room temperature, washed with several changes of PBS pH 7.4 containing 50 mM NH4Cl. […] The cells were embedded in LR White in gelatin capsules and baked at 60° C. for 24 hours in a vacuum oven, sectioned and incubated overnight at 4° C. with anti-DNP antibodies in 4% FBS, washed and incubated in gold (10 nm) labeled secondary antibodies for 2 hours. They were then stained and visualized under the electron microscope.
Cells were plated on polystyrene plates at 50% confluency. Twenty-four to thirty-six hours later, the medium was aspirated and the cells were covered with 50 μl of DME with SNARF-dextran (10 mg/ml). The cells were quickly scraped off the polystyrene and placed in pre-chilled tubes containing 1 ml DME without serum. The cells were harvested (100 g for 5 minutes), washed twice with pre-chilled DME, and plated on Lab-Tek chambers in DME with serum. The cells were allowed to recover for 24 hours prior to examination on a confocal microscope. The pH was calibrated from SNARF fluorescence as described above.
pH in the nucleus: The nucleoplasmic pH was probed by loading the cytosol with SNARF conjugated to a 10 kD dextran. This dextran is too large to cross cellular membranes, but can enter the nucleoplasm by diffusion across the nuclear pores. Confocal fluorescence microscopy was used to prepare optical sections through the cell allowing the fluorescence intensity of the nucleoplasm and cytoplasm to be quantified. The 10 kD SNARF-dextran was loaded into the cytosol and imaged using the same techniques for the 70 kD SNARF-dextrans (see above).

`CO[C@@H]1C[C@@H](C[C@H]2CC[C@H](C)[C@H]([C@@H](C)C(=O)O)O2)O[C@]2(O[C@](C)([C@H]3CC[C@@](C)([C@@H]4O[C@@H]([C@H]5O[C@@](O)(CO)[C@H](C)C[C@@H]5C)C[C@@H]4C)O3)C[C@H]2C)[C@@H]1C` [Nigericin]: the “rate of dissipation of the pre-existing pH gradient” value in data set [1] is reported as “significantly faster than tamoxifen”. Further, the “effect on sensitivity of drug-resistant cells to Adriamycin” value (from here on “effect on sensitivity”) in the data set on MCF-7/ADR cells [2] is listed as “functioned in a similar manner”. Moreover, the “acridine orange staining of acidic vesicles after treatment” value with MCF-7/ADR cells [3] (MCF-7adr (Examples 2, 3), nigericin 7.5 μM, tamoxifen 50 μM) was “eliminated fluorescent staining of both cytoplasmic vesicles and vesicles within the pericentriolar region; also recorded: immediate loss of orange/red fluorescence”.

Regarding `COc1cccc2c1C(=O)c1c(O)c3c(c(O)c1C2=O)C[C@@](O)(C(=O)CO)C[C@@H]3O[C@H]1C[C@H](N)[C@H](O)[C@H](C)O1` [Adriamycin], the “time for Adriamycin accumulation to reach a steady-state distribution” value in the data set with MCF-7/ADR cells [4] (MCF-7 and MCF-7/ADR cells) is on record as “approximately 60 minutes”. Moreover, the cell death entry in the data set on MCF-7/ADR cells [2] (1 μM Adriamycin, absence of Tamoxifen, 6 hours exposure, assayed after three days) was “less than 20%”. For the same compound, the “accumulation in a liposome” value in data set [5] is “approximately 100 fold”.

As to `COc1ccc(CCN(C)CCCC(C#N)(c2ccc(OC)c(OC)c2)C(C)C)cc1OC` (stereo not shown) [verapamil], in the data set on MCF-7/ADR cells [4], the “Adriamycin distribution after addition of agent” value is “shifted Adriamycin from punctate cytoplasmic organelles to a diffuse cytoplasmic and nucleoplasmic distribution”. Further, the “red-orange acridine orange fluorescence of cytoplasmic organelles after addition of agent” value in the data set with MCF-7/ADR cells [3] is “loss of the red-orange cytoplasmic fluorescence”. In addition, in the data set with MCF-7/ADR cells [6], the “shift of cytosolic pH, more alkaline” value is on record as “no measurable effect on cytosolic pH”.

Regarding `C[C@H]1CCC/C=C/[C@@H]2C[C@H](O)C[C@H]2[C@H](O)/C=C/C(=O)O1` [Brefeldin A], the “effect on sensitivity” value in the data set on MCF-7/ADR cells [2] was “did not affect drug sensitivity”.

As for `CO/C1=C\C(C)=C\[C@@H](C)[C@@H](O)[C@@H](C)C/C(C)=C/C=C/[C@H](OC)[C@@H]([C@@H](C)[C@@H](O)[C@H](C)[C@@]2(O)C[C@@H](O)[C@H](C)[C@@H](C(C)C)O2)OC1=O` [Bafilomycin A1], in the data set with MCF-7/ADR cells [4], the “Adriamycin distribution after addition of agent” value is “redistributed Adriamycin to the nucleoplasm; also recorded: substantially decreased in all cytoplasmic compartments and increased in the nucleoplasm”. For the same compound, the “acidification of pre-treated microsomes” value in data set [1] (Tamoxifen 8 μM, Bafilomycin A1 10 nM, monensin concentration not given) is recorded as “blocked acidification”. Besides, the “rate of dissipation of the pre-existing pH gradient” value in data set [1] is given as “dissipated the pH gradient at a much slower rate”. Also, in data set [1] (at one tenth of 100 nM), the acidification blocked is 95%. Also, the “red-orange acridine orange fluorescence of cytoplasmic organelles after addition of agent” value in the data set with MCF-7/ADR cells [3] is on record as “the punctate red labeling of acidic organelles was lost; also recorded: disappearance of punctate red-orange cytoplasmic fluorescence”.

For the compound `N=C(N)NC(=O)c1nc(Cl)c(N)nc1N` [amiloride], the “effect on sensitivity” value in the data set with MCF-7/ADR cells [2] is “functioned in a similar manner”.
